Experimental data reported in patent publication US20260335299A1, “SUBSTITUTED OXOISOINDOLINYL PIPERIDINE-2,6-DIONE COMPOUND AS ANTICANCER AGENT” (BRISTOL-MYERS SQUIBB COMPANY, priority 2023, published 2026).
Where two headings read alike, the source gives them in different places.

Experiments:
IKZF2 Helios = IKZF2 Helios (Homo sapiens, UniProt Q96SW2+Q9UKS7); experiment: Human Regulatory T Cell Degradation Assay (Helios); format: cell-based; set-up: Human CD4+ T cells were isolated from fresh healthy leukopaks; endogenous in cells; host or cells: FACS-sorted primary human regulatory T cells from healthy leukopaks; settings: human regulatory T cells, 20 h
Chain of IKZF2 Helios (Q9UKS7 whole entry): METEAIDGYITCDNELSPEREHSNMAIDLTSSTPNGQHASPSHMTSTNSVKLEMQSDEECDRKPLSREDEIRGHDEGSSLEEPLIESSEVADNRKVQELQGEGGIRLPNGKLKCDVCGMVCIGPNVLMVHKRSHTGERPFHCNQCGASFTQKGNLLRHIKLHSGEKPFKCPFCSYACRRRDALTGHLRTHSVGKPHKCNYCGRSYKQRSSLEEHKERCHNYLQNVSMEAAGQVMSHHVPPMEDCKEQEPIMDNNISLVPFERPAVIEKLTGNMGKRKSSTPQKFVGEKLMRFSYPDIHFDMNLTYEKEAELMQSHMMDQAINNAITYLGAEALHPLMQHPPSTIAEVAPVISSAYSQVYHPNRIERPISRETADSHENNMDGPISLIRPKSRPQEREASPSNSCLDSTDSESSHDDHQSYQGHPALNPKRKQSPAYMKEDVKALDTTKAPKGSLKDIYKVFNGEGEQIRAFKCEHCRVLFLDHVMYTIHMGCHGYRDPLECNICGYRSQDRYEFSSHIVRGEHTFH
Chain of IKZF2 Helios (Q96SW2 whole entry): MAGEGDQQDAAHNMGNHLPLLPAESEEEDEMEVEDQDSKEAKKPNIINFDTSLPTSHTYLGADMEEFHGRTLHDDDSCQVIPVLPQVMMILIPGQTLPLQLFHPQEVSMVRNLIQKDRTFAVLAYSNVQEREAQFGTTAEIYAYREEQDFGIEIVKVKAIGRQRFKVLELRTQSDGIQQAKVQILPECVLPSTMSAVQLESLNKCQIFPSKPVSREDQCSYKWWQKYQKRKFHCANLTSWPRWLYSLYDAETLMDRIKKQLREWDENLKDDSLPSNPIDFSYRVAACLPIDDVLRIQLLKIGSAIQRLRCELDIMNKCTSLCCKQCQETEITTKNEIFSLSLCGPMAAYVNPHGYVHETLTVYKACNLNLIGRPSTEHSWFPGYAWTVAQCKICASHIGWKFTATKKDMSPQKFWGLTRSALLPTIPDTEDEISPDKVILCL
Chain of IKZF2 Helios (Q16531 whole entry partner): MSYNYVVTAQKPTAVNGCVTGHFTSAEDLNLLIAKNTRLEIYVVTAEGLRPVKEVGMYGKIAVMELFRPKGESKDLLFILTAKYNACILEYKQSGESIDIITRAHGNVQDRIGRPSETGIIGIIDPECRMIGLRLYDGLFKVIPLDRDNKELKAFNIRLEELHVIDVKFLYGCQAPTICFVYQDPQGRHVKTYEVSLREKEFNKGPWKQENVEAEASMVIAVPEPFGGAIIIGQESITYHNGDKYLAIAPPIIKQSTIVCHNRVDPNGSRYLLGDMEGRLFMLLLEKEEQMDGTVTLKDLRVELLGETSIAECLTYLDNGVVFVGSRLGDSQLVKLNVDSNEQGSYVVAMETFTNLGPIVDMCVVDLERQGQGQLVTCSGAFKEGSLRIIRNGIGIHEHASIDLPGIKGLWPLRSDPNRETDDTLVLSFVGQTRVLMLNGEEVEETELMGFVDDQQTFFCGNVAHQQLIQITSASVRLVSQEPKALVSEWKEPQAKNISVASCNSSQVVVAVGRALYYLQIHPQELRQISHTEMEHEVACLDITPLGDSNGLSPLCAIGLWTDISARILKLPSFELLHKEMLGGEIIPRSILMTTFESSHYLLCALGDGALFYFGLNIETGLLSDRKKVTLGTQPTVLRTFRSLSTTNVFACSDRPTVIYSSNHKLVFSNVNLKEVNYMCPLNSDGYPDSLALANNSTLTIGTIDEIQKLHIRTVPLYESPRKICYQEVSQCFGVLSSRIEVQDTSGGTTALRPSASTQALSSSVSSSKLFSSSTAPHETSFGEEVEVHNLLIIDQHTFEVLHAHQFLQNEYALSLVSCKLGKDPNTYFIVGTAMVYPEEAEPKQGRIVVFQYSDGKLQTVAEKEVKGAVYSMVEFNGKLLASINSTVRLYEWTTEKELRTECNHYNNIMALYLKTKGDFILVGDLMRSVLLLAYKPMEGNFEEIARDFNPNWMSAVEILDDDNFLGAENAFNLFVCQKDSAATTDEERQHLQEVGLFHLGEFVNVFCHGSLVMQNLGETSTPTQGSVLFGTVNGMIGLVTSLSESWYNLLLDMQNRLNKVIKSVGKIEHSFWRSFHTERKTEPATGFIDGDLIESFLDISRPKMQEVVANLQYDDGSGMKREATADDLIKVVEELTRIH
Description: Cryopreserved human regulatory T cells were thawed in RPMI+10% FBS+20 ng/mL IL-2. After being spun at 1200 rpm for 5 mins, the cells were resuspended in RPMI+10% FBS+20 ng/ml and rested at 37° C. with 5% CO2 for 3 hours. The cells were then plated at 40,000 cells/well in 40 μL RPMI+10% FBS+20 ng/mL human IL-2 in a 384 well cell culture plate prior to using acoustic dispensing technology (ECHO 555) for adding compounds of interest. Cell cultures were incubated for 20 hours at 37° C. and 5% CO2. In order to facilitate analysis, cell cultures were spun down at 1200 rpm for 5 minutes and the supernatant was discarded using an EL406 plate washer. After washing three times with […] PBS, cell pellets were resuspended in 50 μL of […] viability staining solution (Life Technologies, Cat #L34975) and incubated for 30 minutes on ice protected from light. Cells were washed three times with 70 μL PBS+0.5% BSA using an EL406 plate washer. […] Stained cells were resuspended in 30 μL of flow cytometry staining buffer (PBS+0.5% BSA) and analyzed using an Intellicyt Ique Plus flow cytometer.
Table B-1 lists the maximum observed degradation of the IKZF1 protein and IKZF2 protein as measured in the Human Regulatory T Cell Degradation assay. […]

IKZF3 Aiolos = IKZF3 Aiolos (Homo sapiens, UniProt Q96SW2+Q9UKT9); experiment: Human CD8+ T Cell Reprogramming (Degradation) Assay (Aiolos); format: cell-based; set-up: Cryopreserved healthy donor human peripheral blood mononuclear cells (PBMC); endogenous in cells; host or cells: CD8+ T cells within healthy donor human PBMC; settings: 24 h
Chain of IKZF3 Aiolos (Q9UKT9 whole entry): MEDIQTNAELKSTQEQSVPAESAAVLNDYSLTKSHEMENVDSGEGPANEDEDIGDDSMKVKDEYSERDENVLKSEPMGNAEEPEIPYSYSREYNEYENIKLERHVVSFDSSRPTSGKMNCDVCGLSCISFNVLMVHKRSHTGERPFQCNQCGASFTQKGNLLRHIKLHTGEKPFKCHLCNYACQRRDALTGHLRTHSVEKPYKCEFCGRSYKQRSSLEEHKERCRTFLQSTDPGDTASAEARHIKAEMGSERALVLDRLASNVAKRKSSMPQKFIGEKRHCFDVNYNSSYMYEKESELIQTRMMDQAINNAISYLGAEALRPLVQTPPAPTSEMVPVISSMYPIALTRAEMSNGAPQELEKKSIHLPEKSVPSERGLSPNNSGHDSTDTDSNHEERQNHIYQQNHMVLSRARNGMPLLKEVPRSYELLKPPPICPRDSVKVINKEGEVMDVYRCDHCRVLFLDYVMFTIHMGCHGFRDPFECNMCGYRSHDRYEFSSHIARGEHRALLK
Chain of IKZF3 Aiolos (Q96SW2 whole entry): as the sequence (Q96SW2 whole entry) above
Chain of IKZF3 Aiolos (Q16531 whole entry partner): as the sequence (Q16531 whole entry partner) above
Description: Cryopreserved healthy donor human peripheral blood mononuclear cells (PBMC) from healthy donors were thawed and seeded at 500,000 cells/well of 96-well round bottom plates in RPMI 1640 media (Gibco) supplemented with 10% FBS, Pen/Strep (Gibco), MEM-NEAA (Gibco), and sodium pyruvate (Gibco). Cells were treated with titrated doses of compound for 24 hours at 37° C., 5% CO2 before analyzing by flow cytometry.
For flow cytometry staining, cells were washed twice with flow cytometry staining buffer (Thermo Fisher) and incubated in Human Tru-stain Fc block (Biolegend) for 10 minutes before adding eFluor780 viability dye (Thermo Fisher) and surface marker antibody cocktail containing LD-eFluor780, CD3-BUV-395, CD4-BUV805, CD8-FITC, and CD25-BV605 for 30 minutes at 4° C. Cells were then fixed and permeabilized by incubation with permeabilization buffer (eBioscience FoxP3 buffer set 00-5523-00) for 30 minutes at 4° C. as per the kit manufacturer's instructions. Cells were washed twice with the Perm/Wash buffer supplied in the kit as per the manufacturer's instructions and incubated overnight at 4° C. with an intracellular antibody cocktail comprised of antibodies specific for the transcription factors (i.e., Foxp3-BV421, HELIOS-PE-Cy7, EOS-PE, IKAROS-PECF594, AIOLOS-AF647). Cells were washed twice with Perm/Wash buffer and resuspended in flow cytometry staining buffer (Thermo Fisher) prior to acquisition. Sample acquisition and analysis was performed using a BD LSRFortessa (BD Biosciences) flow cytometer. Single-stain controls for each fluorochrome were prepared using UltraComp eBead Compensation Beads (Thermo Fisher). Data were analyzed using FlowJo version 10 and GraphPad Prism Software.
Table D-1 lists the maximum observed degradation of the IKZF1 protein and IKZF3 protein as measured in the Human CD8^+ T Cell Reprogramming assay. The results in Table D-1 were rounded to two digits. In the Human CD8^+ T Cell Reprogramming assay, a value of 100% indicated no detectable protein remaining or complete degradation of the protein; and a value of 0% indicated no detectable degradation of the protein by the test compound.

Dmax (IKZF2 Helios; Regulatory T cell, read-out: IKZF2 Helios max % deg. observed): 96% | DC50 (IKZF2 Helios; concentration reducing protein level by 50% compared to DMSO alone): 0.1 nM | Dmax (IKZF3 Aiolos; summary table, Human CD8+ T Cell Reprogramming Assay (Table D-1), read-out: IKZF3 Aiolos max % deg. observed (Table E)): 80 to 84% | DC50 (IKZF3 Aiolos; CD8+ T cells, human PBMC, concentration reducing protein level by 50% compared to DMSO alone): 33 to 36 nM | Dmax (IKZF3 Aiolos; CD8+ T cells, human PBMC, read-out: IKZF3 Aiolos Maximum Observed Degradation): 80 to 84% | Dmax (IKZF3 Aiolos; human, text summary of Table D-1, read-out: decreased the level of IKZF3 (Aiolos)): ≥ 80%
SMILES: Nc1nc(-c2ccc3c(c2F)CN(C2CCC(=O)NC2=O)C3=O)ccc1CN1CC(C2CCC(F)(F)CC2)C1 (stereo not drawn) [Example 1, 3-(5-(6-Amino-5-((3-(4,4-difluorocyclohexyl)azetidin-1-yl)methyl)pyridin-2-yl)-4-fluoro-1-oxoisoindolin-2-yl) piperidine-2,6-dione]
